In PMC11571207, “Stereorandomized Oncocins with Preserved Ribosome Binding and Antibacterial Activity” (Journal of Medicinal Chemistry, 2024):
In brackets after ≈: the same amount, converted by molar mass. Non-standard residues stand in square brackets, D forms with d. Residues, ends and D or L forms follow the SMILES beside them. No end group written: not given here.

Legend:
E. coli W3110 = test: microbe, parasite or virus in culture; details: for MIC E. coli, 12.5% MHB / MIC E. coli, Full MHB: E. coli W3110, 16–20 h at 37 °C, broth microdilution; for MIC E. coli, 12.5% MHB: 12.5% Müller–Hinton medium; for MIC E. coli, Full MHB: full Müller–Hinton medium; for MIC E. coli W3110: supplement CSV
Description: (§1) We tested antibacterial effects against the Gram-negative bacteria Escherichia coli, Klebsiella pneumoniae, Pseudomonas aeruginosa, and Acinetobacter baumannii and the Gram-positive methicillin-resistant Staphylococcus aureus (MRSA).
(§2) Bacterial growth assay (Figure S1), transmission electron microscopy (Figure S6), serum stability assay (Figure S7), circular dichroism spectral recording (Figures S8 and S9), antimicrobial and hemolysis activity assays (MIC and MHC), and vesicle leakage assay were carried out as described in earlier publications.[43],[44]
(§3) Minimum inhibitory concentration assay
(§4) Antimicrobial activity was assayed against P. aeruginosa PAO1, K. pneumoniae NCTC418, E. coli W3110, A. baumannii ATCC 19606, methicillin-resistant S. aureus COL (MRSA), and for selected peptides on P. aeruginosa PA14 and the polymyxin-B-resistant derivative PA14 2P4, as well as the clinical isolates ZEM-1A and ZEM9A, K. pneumoniae OXA-48, S. aureus Newman, Enterobacter cloacae and Burkholderia cenocepacia. The minimal inhibitory concentration (MIC) was determined by using broth microdilution method. A colo ny of bacteria was picked and grown in Luria-Bertani (LB) medium overnight at 37°C. For E. coli BW25113 sbmA::kan the medium was supplemented with 25 mg/L of kanamycin. The next day, the culture was then regrown in LB medium to log phase (OD600 = 0.6 to 0.8), which lasted approximately 4 h, and diluted to an OD600 of 0.022 in the desired medium. Stock solutions of 1 mg/mL of the samples were prepared in sterilized milliQ water and diluted to the beginning concentration of 64 μg/mL in 300 μL Mueller Hinton (MH)-medium. The diluted samples were added to first well of 96-well microtiter plate (TPP, untreated, Faust Laborbedarf, AG, Schaffhausen) and diluted serially by ½. Finally, 4 μL of the bacterial suspension was inoculated into the sample solutions (150 μL/well) with a final inoculation of about 5∙10^5 CFU/mL. The plates were then incubated at 37°C for 15-18h. For each assay, sterility (broth only) and growth control (broth with bacterial inoculum, without antibiotics) were checked with two columns in the plate. The next day, 15 μL of 3-(4,5-dimethylthiazol-2-yl)-2,5-diphenyltetrazolium bromide (MTT) was added to each well of the plate, such a way that MIC was defined as the lowest concentration of the peptide that inhibited visible growth of the tested

A. baumannii ATCC19606 = test: microbe, parasite or virus in culture; details: for MIC A. baumannii, 12.5% MHB / MIC A. baumannii, Full MHB: A. baumannii ATCC19606, 16–20 h at 37 °C; for MIC A. baumannii, 12.5% MHB: 12.5% Müller–Hinton medium; for MIC A. baumannii, Full MHB: full Müller–Hinton medium; for MIC A. baumannii ATCC19606: supplement CSV
Description: as §1, §2, §3, §4

P. aeruginosa PAO1 = test: microbe, parasite or virus in culture; details: for MIC P. aeruginosa, 12.5% MHB / MIC P. aeruginosa, Full MHB: P. aeruginosa PAO1, 16–20 h at 37 °C; for MIC P. aeruginosa, 12.5% MHB: 12.5% Müller–Hinton medium; for MIC P. aeruginosa, Full MHB: full Müller–Hinton medium; for MIC P. aeruginosa PAO1: supplement CSV
Description: as §1, §2, §3, §4

K. pneumoniae NCTC 418 = test: microbe, parasite or virus in culture; details: for MIC K. pneumoniae, 12.5% MHB / MIC K. pneumoniae, Full MHB: K. pneumoniae NCTC 418, 16–20 h at 37 °C; for MIC K. pneumoniae, 12.5% MHB: 12.5% Müller–Hinton medium; for MIC K. pneumoniae, Full MHB: full Müller–Hinton medium; for MIC K. pneumoniae NCTC418: supplement CSV
Description: as §1, §2, §3, §4

S. aureus COL (MRSA) = test: microbe, parasite or virus in culture; details: for MIC S. aureus, 12.5% MHB / MIC S. aureus, Full MHB: S. aureus COL (MRSA), 16–20 h at 37 °C; for MIC S. aureus, 12.5% MHB: 12.5% Müller–Hinton medium; for MIC S. aureus, Full MHB: full Müller–Hinton medium; for MIC S. aureus COL (MRSA): supplement CSV
Description: as §1, §2, §3, §4

human red blood cells = test: Hemolysis assay, minimum hemolytic concentration; details: for Haemolysis on hRBC, MHC: 2.5% human red blood cells (final) in 10 mM phosphate, 150 mM NaCl, pH 7.4, 25 °C, 4 h, visual inspection; for MHC human red blood cells: supplement CSV

Row | Molecule | MIC E. coli, 12.5% MHB (E. coli W3110) [µg/mL] | MIC E. coli, Full MHB (E. coli W3110) [µg/mL] | MIC E. coli W3110 (E. coli W3110; 12.5% MH pH 7.4) [µg/mL] | MIC E. coli W3110 (E. coli W3110; full MH pH 7.4) [µg/mL] | MIC A. baumannii, 12.5% MHB (A. baumannii ATCC19606) [µg/mL] | MIC A. baumannii, Full MHB (A. baumannii ATCC19606) [µg/mL] | MIC A. baumannii ATCC19606 (A. baumannii ATCC19606; 12.5% MH pH 7.4) [µg/mL] | MIC A. baumannii ATCC19606 (A. baumannii ATCC19606; full MH pH 7.4) [µg/mL] | MIC P. aeruginosa, 12.5% MHB (P. aeruginosa PAO1) [µg/mL] | MIC P. aeruginosa, Full MHB (P. aeruginosa PAO1) [µg/mL] | MIC P. aeruginosa PAO1 (P. aeruginosa PAO1; 12.5% MH pH 7.4) [µg/mL] | MIC P. aeruginosa PAO1 (P. aeruginosa PAO1; full MH pH 7.4) [µg/mL] | MIC K. pneumoniae, 12.5% MHB (K. pneumoniae NCTC 418) [µg/mL] | MIC K. pneumoniae, Full MHB (K. pneumoniae NCTC 418) [µg/mL] | MIC K. pneumoniae NCTC418 (K. pneumoniae NCTC 418; 12.5% MH pH 7.4) [µg/mL] | MIC K. pneumoniae NCTC418 (K. pneumoniae NCTC 418; full MH pH 7.4) [µg/mL] | MIC S. aureus, 12.5% MHB (S. aureus COL (MRSA)) | MIC S. aureus, Full MHB (S. aureus COL (MRSA)) | MIC S. aureus COL (MRSA) (S. aureus COL (MRSA); 12.5% MH pH 7.4) [µg/mL] | MIC S. aureus COL (MRSA) (S. aureus COL (MRSA); full MH pH 7.4) [µg/mL] | other results
1 | CC[C@H](C)[C@H](NC(=O)[C@H](CCCNC(=N)N)NC(=O)[C@H](CCCNC(=N)N)NC(=O)[C@@H]1CCCN1C(=O)[C@@H]1CCCN1C(=O)[C@H](CCCNC(=N)N)NC(=O)[C@@H]1CCCN1C(=O)[C@@H](CCCNC(=N)N)NC(=O)[C@@H]1CCCN1C(=O)[C@H](CC(C)C)NC(=O)[C@H](Cc1ccc(O)cc1)NC(=O)[C@@H]1CCCN1C(=O)[C@@H]1CCCN1C(=O)[C@H](CCCCN)NC(=O)[C@H](CC(=O)O)NC(=O)[C@@H](N)C(C)C)C(=O)N[C@@H](Cc1ccc(O)cc1)C(=O)N[C@@H](CC(N)=O)C(=O)N[C@@H](CCCNC(=N)N)C(N)=O [DR9-Onc] (H-VDKPPYLP[dR]PRPPRRIYNR-NH2) | 4 (≈ 1.67 µM) | 16 (≈ 6.69 µM) | 4 (≈ 1.67 µM) | 16 (≈ 6.69 µM) | 8 (≈ 3.35 µM) | > 64 | 8 (≈ 3.35 µM) | >64 | 32 (≈ 13.4 µM) | > 64 | 32 (≈ 13.4 µM) | >64 | 4 (≈ 1.67 µM) | 16 (≈ 6.69 µM) | 4 (≈ 1.67 µM) | 16 (≈ 6.69 µM) | >64 / >64 μg/mL | >64 / >64 μg/mL | >64 | >64 | Haemolysis on hRBC, MHC (human red blood cells): >1000 µg/mL; MHC human red blood cells (human red blood cells): >1000 µg/mL
2 | CC[C@H](C)[C@H](NC(=O)[C@H](CCCNC(=N)N)NC(=O)[C@H](CCCNC(=N)N)NC(=O)[C@@H]1CCCN1C(=O)[C@@H]1CCCN1C(=O)[C@@H](CCCNC(=N)N)NC(=O)[C@@H]1CCCN1C(=O)[C@H](CCCNC(=N)N)NC(=O)[C@@H]1CCCN1C(=O)[C@H](CC(C)C)NC(=O)[C@H](Cc1ccc(O)cc1)NC(=O)[C@@H]1CCCN1C(=O)[C@@H]1CCCN1C(=O)[C@H](CCCCN)NC(=O)[C@H](CC(=O)O)NC(=O)[C@@H](N)C(C)C)C(=O)N[C@@H](Cc1ccc(O)cc1)C(=O)N[C@@H](CC(N)=O)C(=O)N[C@@H](CCCNC(=N)N)C(N)=O [DR11-Onc] (H-VDKPPYLPRP[dR]PPRRIYNR-NH2) | 2 (≈ 0.837 µM) | 16 (≈ 6.69 µM) | 2 (≈ 0.837 µM) | 16 (≈ 6.69 µM) | 16 (≈ 6.69 µM) | 32 (≈ 13.4 µM) | 16 (≈ 6.69 µM) | 32 (≈ 13.4 µM) | 16 (≈ 6.69 µM) | > 64 | 16 (≈ 6.69 µM) | >64 | 2 (≈ 0.837 µM) | 16 (≈ 6.69 µM) | 2 (≈ 0.837 µM) | 16 (≈ 6.69 µM) | >64 / >64 μg/mL | >64 / >64 μg/mL | >64 | >64 | Haemolysis on hRBC, MHC (human red blood cells): >1000 µg/mL; MHC human red blood cells (human red blood cells): >1000 µg/mL
3 | CC[C@H](C)[C@H](NC(=O)[C@H](CCCNC(=N)N)NC(=O)[C@H](CCCNC(=N)N)NC(=O)[C@@H]1CCCN1C(=O)[C@@H]1CCCN1C(=O)[C@H](CCCNC(=N)N)NC(=O)[C@@H]1CCCN1C(=O)[C@H](CCCNC(=N)N)NC(=O)[C@@H]1CCCN1C(=O)[C@H](CC(C)C)NC(=O)[C@@H](Cc1ccc(O)cc1)NC(=O)[C@@H]1CCCN1C(=O)[C@@H]1CCCN1C(=O)[C@H](CCCCN)NC(=O)[C@H](CC(=O)O)NC(=O)[C@@H](N)C(C)C)C(=O)N[C@@H](Cc1ccc(O)cc1)C(=O)N[C@@H](CC(N)=O)C(=O)N[C@@H](CCCNC(=N)N)C(N)=O [DY6-Onc] (H-VDKPP[dY]LPRPRPPRRIYNR-NH2) | 4 (≈ 1.67 µM) | 16 (≈ 6.69 µM) | 4 (≈ 1.67 µM) | 16 (≈ 6.69 µM) | 16 (≈ 6.69 µM) | > 64 | 16 (≈ 6.69 µM) | >64 | 16 (≈ 6.69 µM) | > 64 | 16 (≈ 6.69 µM) | >64 | 4 (≈ 1.67 µM) | 8 (≈ 3.35 µM) | 4 (≈ 1.67 µM) | 8 (≈ 3.35 µM) | >64 / 64 μg/mL | >64 / 64 μg/mL | 64 (≈ 26.8 µM) | >64 | Haemolysis on hRBC, MHC (human red blood cells): >1000 µg/mL; MHC human red blood cells (human red blood cells): >1000 µg/mL
4 | VDKPPYLPRPRPPRRIYNR [sr3N5Cterm-Onc] (VDKPPYLPRPRPPRRIYNR-NH2; also: residues 1-3 and 15-19 stereorandomized (1:1 L/D mixture)) | 1 | 8 | 1 | 8 | 4 | 32 | 4 | 32 | 8 | > 64 | 8 | >64 | 1 | 16 | 1 | 16 | >64 / 64 μg/mL | >64 / 64 μg/mL | 64 | >64 | Haemolysis on hRBC, MHC (human red blood cells): >1000 µg/mL; MHC human red blood cells (human red blood cells): >1000 µg/mL
5 | VDKPPYLPRPRPPRRIYNR [sr3Nterm-Onc] (VDKPPYLPRPRPPRRIYNR-NH2; also: residues 1-3 stereorandomized (1:1 L/D mixture)) | 2 | 16 | 2 | 16 | 8 | 64 | 8 | 64 | 16 | > 64 | 16 | >64 | 2 | 16 | 2 | 16 | >64 / 64 μg/mL | >64 / 64 μg/mL | 64 | >64 | Haemolysis on hRBC, MHC (human red blood cells): >1000 µg/mL; MHC human red blood cells (human red blood cells): >1000 µg/mL
